Experimental findings from ChEMBL document CHEMBL1130630, “Structure-based design of peptidomimetic ligands of the Grb2-SH2 domain” (Bioorg Med Chem Lett, 1998) are described below.

Square brackets hold non-standard residues; d marks the D form. Peptide text beside a SMILES is read from it. pY = N[C@@H](Cc1ccc(OP(=O)(O)O)cc1)C(=O)O

A word on the IC50: it is the concentration at which inhibition is half-maximal.

The target of this assay is Growth factor receptor-bound protein 2 (Homo sapiens, UniProt P62993). The assay can be described thus: Inhibition of Growth factor receptor bound protein 2 SH2 domain binding to phospho-EGFR by ELISA. For orientation: ELISA stands for enzyme-linked immunosorbent assay.
Sequence of Growth factor receptor-bound protein 2 (P62993 whole entry, the tested form may be a part): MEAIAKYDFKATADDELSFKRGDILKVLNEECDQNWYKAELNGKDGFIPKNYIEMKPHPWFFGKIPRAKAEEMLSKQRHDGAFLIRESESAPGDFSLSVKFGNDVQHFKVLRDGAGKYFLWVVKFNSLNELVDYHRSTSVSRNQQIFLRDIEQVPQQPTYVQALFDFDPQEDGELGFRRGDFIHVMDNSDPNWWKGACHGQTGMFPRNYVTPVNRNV
Consider `CC(=O)N[C@@H](Cc1ccc(OP(=O)(O)O)cc1)C(=O)N[C@@H](CCC(N)=O)C(=O)N[C@@H](CC(N)=O)C(N)=O` (Ac-[pY]-Gln-Asn-NH2), for which the IC50 stood at 5.44 µM. This lies in the single-digit micromolar range.

Take `CC(=O)N[C@@H](Cc1ccc(OP(=O)(O)O)cc1)C(=O)N[C@@H](CCC(N)=O)c1cccc(NC(N)=O)c1`: the IC50 came out at 6.5 µM.

On to `CC(=O)N[C@@H](Cc1ccc(OP(=O)(O)O)cc1)C(=O)NCC(=O)N[C@@H](CC(N)=O)C(N)=O` (Ac-[pY]-Gly-Asn-NH2), for which the IC50 was 67 µM.

As to `CC(=O)N[C@@H](Cc1ccc(OP(=O)(O)O)cc1)C(=O)N[C@H](c1cccc(NC(N)=O)c1)C(C)C`, the half-maximal inhibitory concentration (IC50) came to 6.19 µM.

`CC(=O)N[C@@H](Cc1ccc(OP(=O)(O)O)cc1)C(=O)NCc1cccc(NC(N)=O)c1` displayed an IC50 of 48.7 µM. This IC50 is about 7.9-fold higher than that of the compound before.

`CC(=O)N[C@@H](Cc1ccc(OP(=O)(O)O)cc1)C(=O)N[C@H](C(=O)N[C@@H](CC(N)=O)C(N)=O)C(C)C` (Ac-[pY]-Val-Asn-NH2): the IC50 came out at 4.32 µM.
